Data taken from paper PMC5441849, “Carvacrol derivatives as mushroom tyrosinase inhibitors; synthesis, kinetics mechanism and molecular docking studies” (PLoS ONE, 2017).
“Also recorded” adds a separate entry of the source. Read-outs that look alike come from different tables or passages of the source.

Tests used:
mushroom tyrosinase [1] = target: T1, mushroom tyrosinase (Agaricus bisporus, UniProt C7FF04); experiment: Kinetic analysis of tyrosinase inhibition (Lineweaver-Burk and Dixon plots, diphenolase activity); type: biochemical, Agaricusbisporus; details: for Type of inhibition: Lineweaver-Burk plots, oxidation of L-DOPA
T1 construct: purchased Sigma
Description: Pre-incubation and measurement time was the same as discussed in mushroom tyrosinase inhibition assay protocol. Formation of DOPAchrome was continuously monitored at 475nm for 5min at a 30s interval in the microplate reader after addition of enzyme.

mushroom tyrosinase [2] = target: T1, mushroom tyrosinase; experiment: Reversibility of inhibition (remaining enzyme activity versus enzyme concentration); type: biochemical, Agaricusbisporus; details: enzyme 2 to 10 μg/mL, L-DOPA, 37°C
Description: Assay conditions were same as described in assay protocolexceptthat the final concentration of enzyme was varied (2 to 10 μg/mL).

[3] = Dixon plot, L-DOPA substrate, read-out: Inhibition constant Ki

T1 sequence (C7FF04 2-392): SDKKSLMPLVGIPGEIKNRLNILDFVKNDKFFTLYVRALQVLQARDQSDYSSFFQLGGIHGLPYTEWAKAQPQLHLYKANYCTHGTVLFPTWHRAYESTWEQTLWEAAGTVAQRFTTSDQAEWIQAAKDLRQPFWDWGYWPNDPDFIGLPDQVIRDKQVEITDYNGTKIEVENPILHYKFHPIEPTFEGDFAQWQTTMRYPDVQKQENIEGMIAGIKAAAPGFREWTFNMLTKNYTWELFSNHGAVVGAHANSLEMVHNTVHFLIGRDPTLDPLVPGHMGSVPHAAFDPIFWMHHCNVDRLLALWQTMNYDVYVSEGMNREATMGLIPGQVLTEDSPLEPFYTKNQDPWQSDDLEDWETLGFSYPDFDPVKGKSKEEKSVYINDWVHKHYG

Row | Compound | Ki (mushroom tyrosinase [1]; [3]) [µM] | Type of inhibition (mushroom tyrosinase [1]) | Reversibility of enzyme inhibition (mushroom tyrosinase [2]) | Ki (mushroom tyrosinase [1]) [µM]
1 | Cc1ccc(C(C)C)cc1OC(=O)COC(=O)/C=C/c1ccc(O)cc1 [6b, 2-[2-methyl-5-(propan-2-yl)phenoxy]-2-oxoethyl (2E)-3-(4-hydroxyphenyl)prop-2-enoate] | 10 | mixed-type inhibition | irreversible | 
2 | Cc1ccc(C(C)C)cc1OC(=O)COC(=O)/C=C/c1ccc(O)cc1O [6c, 2-[2-methyl-5-(propan-2-yl)phenoxy]-2-oxoethyl (2E)-3-(2,4-dihydroxyphenyl)prop-2-enoate] |  | non-competitive inhibitor | irreversible; also recorded: irreversibly | 0.05
3 | Cc1ccc(C(C)C)cc1OC(=O)COC(=O)c1ccc(O)cc1O [4c, 2-[2-methyl-5-(propan-2-yl)phenoxy]-2-oxoethyl 2,4-dihydroxybenzoate] | 19 | mixed-type inhibition | reversible inhibitor; also recorded: reversibly | 
